# Test results: ChEMBL document CHEMBL4665642, “Anticancer profile of newly synthesized BRAF inhibitors possess 5-(pyrimidin-4-yl)imidazo[2,1-b]thiazole scaffold” (Bioorg Med Chem, 2019)
# Columns and labels:
# Type in all cases: functional
# Settings in all cases: read-out: Activity
# [1] = tested on: MDA-MB-468; experiment: Cytotoxicity against human MDA-MB-468 cells assessed as cell viability at 10 uM incubated for 48 hrs by sulforhodamine B assay relative to control
# [2] = tested on: BT-549; experiment: Cytotoxicity against human BT-549 cells assessed as cell viability at 10 uM incubated for 48 hrs by sulforhodamine B assay relative to control
# [3] = tested on: Hs-578T; experiment: Cytotoxicity against human HS-578T cells assessed as cell viability at 10 uM incubated for 48 hrs by sulforhodamine B assay relative to control
# [4] = tested on: MDA-MB-231; experiment: Cytotoxicity against human MDA-MB-231 cells assessed as cell viability at 10 uM incubated for 48 hrs by sulforhodamine B assay relative to control
# [5] = tested on: DU-145; experiment: Cytotoxicity against human DU-145 cells assessed as cell viability at 10 uM incubated for 48 hrs by sulforhodamine B assay relative to control
# [6] = tested on: TK-10; experiment: Cytotoxicity against human TK-10 cells assessed as cell viability at 10 uM incubated for 48 hrs by sulforhodamine B assay relative to control
# [7] = tested on: SN12C; experiment: Cytotoxicity against human SN12C cells assessed as cell viability at 10 uM incubated for 48 hrs by sulforhodamine B assay relative to control
# [8] = tested on: RXF 393; experiment: Cytotoxicity against human RXF 393 cells assessed as cell viability at 10 uM incubated for 48 hrs by sulforhodamine B assay relative to control
# [9] = tested on: CAKI-1; experiment: Cytotoxicity against human CAKI-1 cells assessed as cell viability at 10 uM incubated for 48 hrs by sulforhodamine B assay relative to control
# [10] = tested on: ACHN; experiment: Cytotoxicity against human ACHN cells assessed as cell viability at 10 uM incubated for 48 hrs by sulforhodamine B assay relative to control
# [11] = tested on: 786-0; experiment: Cytotoxicity against human 786-0 cells assessed as cell viability at 10 uM incubated for 48 hrs by sulforhodamine B assay relative to control
# [12] = tested on: SK-OV-3; experiment: Cytotoxicity against human SK-OV-3 cells assessed as cell viability at 10 uM incubated for 48 hrs by sulforhodamine B assay relative to control
# [13] = tested on: NCI/ADR-RES; experiment: Cytotoxicity against human NCI/ADR-RES cells assessed as cell viability at 10 uM incubated for 48 hrs by sulforhodamine B assay relative to control
# [14] = tested on: OVCAR-8; experiment: Cytotoxicity against human OVCAR-8 cells assessed as cell viability at 10 uM incubated for 48 hrs by sulforhodamine B assay relative to control
# [15] = tested on: OVCAR-3; experiment: Cytotoxicity against human OVCAR-3 cells assessed as cell viability at 10 uM incubated for 48 hrs by sulforhodamine B assay relative to control
# [16] = tested on: UACC-62; experiment: Cytotoxicity against human UACC-62 cells assessed as cell viability at 10 uM incubated for 48 hrs by sulforhodamine B assay relative to control
# [17] = tested on: UACC-257; experiment: Cytotoxicity against human UACC-257 cells assessed as cell viability at 10 uM incubated for 48 hrs by sulforhodamine B assay relative to control
# [18] = tested on: SK-MEL-28; experiment: Cytotoxicity against human SK-MEL-28 cells assessed as cell viability at 10 uM incubated for 48 hrs by sulforhodamine B assay relative to control
# [19] = tested on: MDA-MB-435; experiment: Cytotoxicity against human MDA-MB-435 cells assessed as cell viability at 10 uM incubated for 48 hrs by sulforhodamine B assay relative to control
# [20] = tested on: M14; experiment: Cytotoxicity against human M14 cells assessed as cell viability at 10 uM incubated for 48 hrs by sulforhodamine B assay relative to control
# [21] = tested on: Malme-3M; experiment: Cytotoxicity against human Malme-3M cells assessed as cell viability at 10 uM incubated for 48 hrs by sulforhodamine B assay relative to control
# [22] = tested on: CCRF-CEM; experiment: Cytotoxicity against human CCRF-CEM cells assessed as cell viability at 10 uM incubated for 48 hrs by sulforhodamine B assay relative to control
# [23] = tested on: SR; experiment: Cytotoxicity against human SR cells assessed as cell viability at 10 uM incubated for 48 hrs by sulforhodamine B assay relative to control
# [24] = tested on: HOP-92; experiment: Cytotoxicity against human HOP-92 cells assessed as cell viability at 10 uM incubated for 48 hrs by sulforhodamine B assay relative to control
# [25] = tested on: NCI-H226; experiment: Cytotoxicity against human NCI-H226 cells assessed as cell viability at 10 uM incubated for 48 hrs by sulforhodamine B assay relative to control
# [26] = tested on: NCI-H23; experiment: Cytotoxicity against human NCI-H23 cells assessed as cell viability at 10 uM incubated for 48 hrs by sulforhodamine B assay relative to control
# [27] = tested on: NCI-H322M; experiment: Cytotoxicity against human NCI-H322M cells assessed as cell viability at 10 uM incubated for 48 hrs by sulforhodamine B assay relative to control
# [28] = tested on: NCI-H460; experiment: Cytotoxicity against human NCI-H460 cells assessed as cell viability at 10 uM incubated for 48 hrs by sulforhodamine B assay relative to control
# [29] = tested on: NCI-H522; experiment: Cytotoxicity against human NCI-H522 cells assessed as cell viability at 10 uM incubated for 48 hrs by sulforhodamine B assay relative to control
# [30] = tested on: COLO 205; experiment: Cytotoxicity against human COLO 205 cells assessed as cell viability at 10 uM incubated for 48 hrs by sulforhodamine B assay relative to control
# [31] = tested on: HCT-116; experiment: Cytotoxicity against human HCT-116 cells assessed as cell viability at 10 uM incubated for 48 hrs by sulforhodamine B assay relative to control
# [32] = tested on: HCT-15; experiment: Cytotoxicity against human HCT-15 cells assessed as cell viability at 10 uM incubated for 48 hrs by sulforhodamine B assay relative to control
# [33] = tested on: HCT-29; experiment: Cytotoxicity against human […] cells assessed as cell viability at 10 uM incubated for 48 hrs by sulforhodamine B assay relative to control
# [34] = tested on: KM12; experiment: Cytotoxicity against human KM12 cells assessed as cell viability at 10 uM incubated for 48 hrs by sulforhodamine B assay relative to control
# [35] = tested on: SW-620; experiment: Cytotoxicity against human SW-620 cells assessed as cell viability at 10 uM incubated for 48 hrs by sulforhodamine B assay relative to control
# [36] = tested on: SF-268; experiment: Cytotoxicity against human SF-268 cells assessed as cell viability at 10 uM incubated for 48 hrs by sulforhodamine B assay relative to control
# [37] = tested on: SF-295; experiment: Cytotoxicity against human SF-295 cells assessed as cell viability at 10 uM incubated for 48 hrs by sulforhodamine B assay relative to control
# [38] = tested on: SNB-75; experiment: Cytotoxicity against human SNB-75 cells assessed as cell viability at 10 uM incubated for 48 hrs by sulforhodamine B assay relative to control
# [39] = tested on: U-251; experiment: Cytotoxicity against human U-251 cells assessed as cell viability at 10 uM incubated for 48 hrs by sulforhodamine B assay relative to control
# [40] = tested on: LOX IMVI; experiment: Cytotoxicity against human LOX IMVI cells assessed as cell viability at 10 uM incubated for 48 hrs by sulforhodamine B assay relative to control
Compound,viability at 10 µM [1] [%],viability at 10 µM [2] [%],viability at 10 µM [3] [%],viability at 10 µM [4] [%],viability at 10 µM [5] [%],viability at 10 µM [6] [%],viability at 10 µM [7] [%],viability at 10 µM [8] [%],viability at 10 µM [9] [%],viability at 10 µM [10] [%],viability at 10 µM [11] [%],viability at 10 µM [12] [%],viability at 10 µM [13] [%],viability at 10 µM [14] [%],viability at 10 µM [15] [%],viability at 10 µM [16] [%],viability at 10 µM [17] [%],viability at 10 µM [18] [%],viability at 10 µM [19] [%],viability at 10 µM [20] [%],other results
O=S(=O)(NCCNc1nccc(-c2c(-c3cccc(F)c3)nc3sccn23)n1)c1ccc(Cl)cc1,64.5,71.3,72.5,91.1,54.2,88.5,48.7,69,41.1,35.7,51.3,94.9,67.7,53.6,65.4,44.3,88.7,74.7,26.3,56.6,viability at 10 µM [21]: 82.7%; viability at 10 µM [22]: 50.5%; viability at 10 µM [23]: 40.6%; viability at 10 µM [24]: 76.6%; viability at 10 µM [25]: 49.3%; viability at 10 µM [26]: 74.9%; viability at 10 µM [27]: 65.5%; viability at 10 µM [28]: 30.1%; viability at 10 µM [29]: 68.2%; viability at 10 µM [30]: 40%; viability at 10 µM [31]: 34%; viability at 10 µM [32]: 31.9%; viability at 10 µM [33]: 36%; viability at 10 µM [34]: 47.7%; viability at 10 µM [35]: 59.6%; viability at 10 µM [36]: 52.9%; viability at 10 µM [37]: 63.7%; viability at 10 µM [38]: 78.9%; viability at 10 µM [39]: 55.2%; viability at 10 µM [40]: 43.6%
O=S(=O)(NCCNc1nccc(-c2c(-c3cccc(F)c3)nc3sccn23)n1)c1cccc(F)c1,68.6,81.5,78.3,79,65.1,88,55.3,80.2,44.6,39.9,63.9,95.8,80.3,60.1,76.7,56.2,104,94.7,41.9,69.4,viability at 10 µM [21]: 108%; viability at 10 µM [22]: 63.3%; viability at 10 µM [23]: 45.5%; viability at 10 µM [24]: 88.2%; viability at 10 µM [25]: 62.5%; viability at 10 µM [26]: 83.4%; viability at 10 µM [27]: 77.1%; viability at 10 µM [28]: 43%; viability at 10 µM [29]: 75.8%; viability at 10 µM [30]: 45.1%; viability at 10 µM [31]: 42.8%; viability at 10 µM [32]: 38.9%; viability at 10 µM [33]: 43.9%; viability at 10 µM [34]: 44.2%; viability at 10 µM [35]: 75.8%; viability at 10 µM [36]: 68.6%; viability at 10 µM [37]: 80.6%; viability at 10 µM [38]: 80%; viability at 10 µM [39]: 60.7%; viability at 10 µM [40]: 51.2%
O=C(NCCCNc1nccc(-c2c(-c3cccc(F)c3)nc3sccn23)n1)c1ccc(F)cc1,59.2,85.2,83.2,120,81.2,95.9,75.8,77.3,73,74.9,62.5,66.3,78.8,68.4,74.1,67.8,116,106,72.6,85.3,viability at 10 µM [21]: 140%; viability at 10 µM [22]: 75.9%; viability at 10 µM [23]: 99.8%; viability at 10 µM [24]: 111%; viability at 10 µM [25]: 69%; viability at 10 µM [26]: 105%; viability at 10 µM [27]: 96.3%; viability at 10 µM [28]: 95.2%; viability at 10 µM [29]: 85.2%; viability at 10 µM [30]: 64.7%; viability at 10 µM [31]: 62.5%; viability at 10 µM [32]: 65.2%; viability at 10 µM [33]: 60.8%; viability at 10 µM [34]: 89%; viability at 10 µM [35]: 115%; viability at 10 µM [36]: 71%; viability at 10 µM [37]: 97.2%; viability at 10 µM [38]: 83.9%; viability at 10 µM [39]: 90.6%; viability at 10 µM [40]: 79.5%
